Measured values reported in patent publication US12723063B2, “GIPR-agonist compounds” (Eli Lilly and Company, priority 2019, dated 2026).
*1 amine or outer side, *2 acyl side, *3 side chain or, on linkers, in order; H or OH if unused. Where a SMILES comes first, the peptide text is derived from it. Side-chain parts run from the residue outwards. [ ]: non-standard residue; d: D form. The star is where a group is joined. C18 diacid = O=C(O)CCCCCCCCCCCCCCCCC(=O)*; γGlu = O=C(O)[C@H](CCC(=O)[*:2])N[*:1]; αMeF = C[C@](N)(Cc1ccccc1)C(=O)O; 4Pal = N[C@@H](Cc1ccncc1)C(=O)O; AEEA = NCCOCCOCC(=O)O; Aib = CC(C)(N)C(=O)O

Assays:
human GIPR = biological target: T1, human GIPR (Homo sapiens, UniProt P48546); assay: [125I]-GIP binding, SPA with WGA beads, 0.1% bacitracin; settings: geometric mean, read-out: hGIPR Ki
T1 construct: expressed in transfected cells; crude membranes
T1 sequence (P48546 22-466): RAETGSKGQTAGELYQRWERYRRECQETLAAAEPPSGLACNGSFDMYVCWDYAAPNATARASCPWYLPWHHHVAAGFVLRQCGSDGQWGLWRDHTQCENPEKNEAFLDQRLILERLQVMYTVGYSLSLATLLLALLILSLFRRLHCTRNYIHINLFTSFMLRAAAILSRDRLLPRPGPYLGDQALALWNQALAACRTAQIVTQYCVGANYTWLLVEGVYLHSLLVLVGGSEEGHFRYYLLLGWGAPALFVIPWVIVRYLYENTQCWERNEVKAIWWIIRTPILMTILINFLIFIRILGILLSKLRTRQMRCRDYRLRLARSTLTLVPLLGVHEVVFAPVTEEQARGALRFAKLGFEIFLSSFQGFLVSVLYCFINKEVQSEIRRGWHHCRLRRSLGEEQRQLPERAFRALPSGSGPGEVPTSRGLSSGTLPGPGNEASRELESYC
Method in brief: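 Ki values are geometric means (SEM, n independent days), derived from four-parameter nonlinear regression of IC50. Membranes came from hGIPR-expressing CHO cells.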

[1] = biological target: T2, human GLP-1 receptor (GLP-1R) (Homo sapiens, UniProt P43220); assay: cAMP functional assay (HTRF) in HEK293 cells in presence of 0.1% casein; assay type: cell-based; settings: HEK293 cells expressing human GLP-1R, geometric mean, read-out: hGLP1R cAMP Rel EC50 nM (SEM, n)
T2 construct: expressed in transfected cells; host or cells: HEK293
T2 sequence (P43220 24-463): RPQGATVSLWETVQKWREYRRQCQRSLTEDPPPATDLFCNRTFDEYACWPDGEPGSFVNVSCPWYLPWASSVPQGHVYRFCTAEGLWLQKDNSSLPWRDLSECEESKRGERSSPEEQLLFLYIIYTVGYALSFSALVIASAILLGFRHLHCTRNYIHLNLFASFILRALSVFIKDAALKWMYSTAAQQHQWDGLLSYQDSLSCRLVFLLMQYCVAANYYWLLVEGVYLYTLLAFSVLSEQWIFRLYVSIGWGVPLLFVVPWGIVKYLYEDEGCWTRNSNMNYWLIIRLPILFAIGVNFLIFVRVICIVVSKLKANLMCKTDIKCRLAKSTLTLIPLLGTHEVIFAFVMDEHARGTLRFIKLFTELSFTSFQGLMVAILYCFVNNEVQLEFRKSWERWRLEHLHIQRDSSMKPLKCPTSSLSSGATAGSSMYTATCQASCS

Compound: CC[C@H](C)[C@H](NC(=O)[C@H](CO)NC(=O)[C@H](Cc1ccc(O)cc1)NC(=O)[C@H](CC(=O)O)NC(=O)[C@H](CO)NC(=O)[C@@H](NC(=O)[C@H](Cc1ccccc1)NC(=O)[C@@H](NC(=O)CNC(=O)[C@H](CCC(=O)O)NC(=O)[C@@H](C)NC(=O)[C@@H](N)Cc1ccc(O)cc1)[C@@H](C)O)[C@@H](C)CC)C(=O)N[C@@H](CC(C)C)C(=O)N[C@@H](CC(C)C)C(=O)N[C@@H](CC(=O)O)C(=O)N[C@@H](CCCCN)C(=O)N[C@@H](CCCCNC(=O)COCCOCCNC(=O)COCCOCCNC(=O)CC[C@H](NC(=O)CCCCCCCCCCCCCCCCC(=O)O)C(=O)O)C(=O)N[C@@H](C)C(=O)N[C@@H](CCC(N)=O)C(=O)NC(C)(C)C(=O)N[C@@H](CC(=O)O)C(=O)N[C@@H](Cc1ccccc1)C(=O)N[C@H](C(=O)N[C@@H](CC(N)=O)C(=O)N[C@@H](Cc1c[nH]c2ccccc12)C(=O)N[C@@H](CC(C)C)C(=O)N[C@@H](CC(C)C)C(=O)N[C@@H](C)C(=O)NCC(=O)NCC(=O)N1CCC[C@H]1C(=O)N[C@@H](CO)C(=O)N[C@@H](CO)C(=O)NCC(=O)N[C@@H](C)C(=O)N1CCC[C@H]1C(=O)N1CCC[C@H]1C(=O)N1CCC[C@H]1C(=O)N[C@@H](CO)C(N)=O)C(C)C [Example 19] (H-Y[dA]EGTFISDYSILLDKK([AEEA-AEEA-γGlu-C18 diacid])AQ[Aib]DFVNWLLAGGPSSGAPPPS-NH2)
- Ki (human GIPR): 0.0469 nM
- EC50 [1]: > 5000 nM

Compound: CC[C@H](C)[C@H](NC(=O)[C@H](CO)NC(=O)[C@H](Cc1ccc(O)cc1)NC(=O)[C@H](CC(=O)O)NC(=O)[C@H](CO)NC(=O)[C@@H](NC(=O)[C@H](Cc1ccccc1)NC(=O)[C@@H](NC(=O)CNC(=O)[C@H](CCC(=O)O)NC(=O)[C@@H](C)NC(=O)[C@@H](N)Cc1ccc(O)cc1)[C@@H](C)O)[C@@H](C)CC)C(=O)N[C@@H](CC(C)C)C(=O)N[C@@H](CC(C)C)C(=O)N[C@@H](CC(=O)O)C(=O)N[C@@H](CCCCN)C(=O)N[C@@H](CCCCNC(=O)COCCOCCNC(=O)COCCOCCNC(=O)CC[C@H](NC(=O)CCCCCCCCCCCCCCCCC(=O)O)C(=O)O)C(=O)N[C@@H](C)C(=O)N[C@@H](CCC(N)=O)C(=O)NC(C)(C)C(=O)N[C@@H](CCC(=O)O)C(=O)N[C@@H](Cc1ccccc1)C(=O)N[C@H](C(=O)N[C@@H](CC(N)=O)C(=O)N[C@@H](Cc1c[nH]c2ccccc12)C(=O)N[C@@H](CC(C)C)C(=O)N[C@@H](CC(C)C)C(=O)N[C@@H](C)C(=O)N[C@@H](CCC(N)=O)C(=O)NCC(=O)N1CCC[C@H]1C(=O)N[C@@H](CO)C(=O)N[C@@H](CO)C(=O)NCC(=O)N[C@@H](C)C(=O)N1CCC[C@H]1C(=O)N1CCC[C@H]1C(=O)N1CCC[C@H]1C(=O)N[C@@H](CO)C(N)=O)C(C)C [Example 20] (H-Y[dA]EGTFISDYSILLDKK([AEEA-AEEA-γGlu-C18 diacid])AQ[Aib]EFVNWLLAQGPSSGAPPPS-NH2)
- Ki (human GIPR): 0.0477 nM
- EC50 [1]: > 5000 nM

Compound: CC[C@H](C)[C@H](NC(=O)[C@H](CO)NC(=O)[C@H](Cc1ccc(O)cc1)NC(=O)[C@H](CC(=O)O)NC(=O)[C@H](CO)NC(=O)[C@@H](NC(=O)[C@H](Cc1ccccc1)NC(=O)[C@@H](NC(=O)CNC(=O)[C@H](CCC(=O)O)NC(=O)C(C)(C)NC(=O)[C@@H](N)Cc1ccc(O)cc1)[C@@H](C)O)[C@@H](C)CC)C(=O)N[C@@H](C)C(=O)N[C@@H](CC(C)C)C(=O)N[C@@H](CC(=O)O)C(=O)N[C@@H](CCCCN)C(=O)N[C@@H](CCCCNC(=O)COCCOCCNC(=O)COCCOCCNC(=O)CC[C@H](NC(=O)CCCCCCCCCCCCCCCCC(=O)O)C(=O)O)C(=O)N[C@@H](Cc1c[nH]cn1)C(=O)N[C@@H](CCC(N)=O)C(=O)NC(C)(C)C(=O)N[C@@H](CC(=O)O)C(=O)N[C@@H](Cc1ccccc1)C(=O)N[C@H](C(=O)N[C@@H](CCC(=O)O)C(=O)N[C@@H](Cc1ccncc1)C(=O)N[C@@H](CC(C)C)C(=O)N[C@@H](CC(C)C)C(=O)N[C@@H](C)C(=O)NCC(=O)NCC(=O)N1CCC[C@H]1C(=O)N[C@@H](CO)C(=O)N[C@@H](CO)C(=O)NCC(=O)N[C@@H](C)C(=O)N1CCC[C@H]1C(=O)N1CCC[C@H]1C(=O)N1CCC[C@H]1C(=O)N[C@@H](CO)C(N)=O)C(C)C [Example 21] (H-Y[Aib]EGTFISDYSIALDKK([AEEA-AEEA-γGlu-C18 diacid])HQ[Aib]DFVE[4Pal]LLAGGPSSGAPPPS-NH2)
- Ki (human GIPR): 1.46 nM
- EC50 [1]: > 5000 nM

Compound: CC[C@H](C)[C@H](NC(=O)[C@H](CO)NC(=O)[C@H](Cc1ccc(O)cc1)NC(=O)[C@H](CC(=O)O)NC(=O)[C@H](CO)NC(=O)[C@@H](NC(=O)[C@H](Cc1ccccc1)NC(=O)[C@@H](NC(=O)CNC(=O)[C@H](CCC(=O)O)NC(=O)C(C)(C)NC(=O)[C@@H](N)Cc1ccc(O)cc1)[C@@H](C)O)[C@@H](C)CC)C(=O)N[C@@H](CC(C)C)C(=O)N[C@@H](CC(C)C)C(=O)N[C@@H](CC(=O)O)C(=O)N[C@@H](CCCCN)C(=O)N[C@@H](CCCCNC(=O)COCCOCCNC(=O)COCCOCCNC(=O)CC[C@H](NC(=O)CCCCCCCCCCCCCCCCC(=O)O)C(=O)O)C(=O)N[C@@H](Cc1c[nH]cn1)C(=O)N[C@@H](CCC(N)=O)C(=O)NC(C)(C)C(=O)N[C@@H](CC(=O)O)C(=O)N[C@@H](Cc1ccccc1)C(=O)N[C@H](C(=O)N[C@@H](CCC(=O)O)C(=O)N[C@@H](Cc1ccncc1)C(=O)N[C@@H](CC(C)C)C(=O)N[C@@H](CC(C)C)C(=O)N[C@@H](C)C(=O)NCC(=O)NCC(=O)N1CCC[C@H]1C(=O)N[C@@H](CO)C(=O)N[C@@H](CO)C(=O)NCC(=O)N[C@@H](C)C(=O)N1CCC[C@H]1C(=O)N1CCC[C@H]1C(=O)N1CCC[C@H]1C(=O)N[C@@H](CO)C(N)=O)C(C)C [Example 22]
- Ki (human GIPR): 0.219 nM
- EC50 [1]: > 5000 nM

Compound: CC[C@H](C)[C@H](NC(=O)[C@H](CO)NC(=O)[C@H](Cc1ccc(O)cc1)NC(=O)[C@H](CC(=O)O)NC(=O)[C@H](CO)NC(=O)[C@@H](NC(=O)[C@](C)(Cc1ccccc1)NC(=O)[C@@H](NC(=O)CNC(=O)[C@H](CCC(=O)O)NC(=O)C(C)(C)NC(=O)[C@@H](N)Cc1ccc(O)cc1)[C@@H](C)O)[C@@H](C)CC)C(=O)N[C@@H](C)C(=O)N[C@@H](CC(C)C)C(=O)N[C@@H](CC(=O)O)C(=O)N[C@@H](CCCCN)C(=O)N[C@@H](CCCCNC(=O)COCCOCCNC(=O)COCCOCCNC(=O)CC[C@H](NC(=O)CCCCCCCCCCCCCCCCC(=O)O)C(=O)O)C(=O)N[C@@H](Cc1c[nH]cn1)C(=O)N[C@@H](CCC(N)=O)C(=O)NC(C)(C)C(=O)N[C@@H](CC(=O)O)C(=O)N[C@@H](Cc1ccccc1)C(=O)N[C@H](C(=O)N[C@@H](CCC(=O)O)C(=O)N[C@@H](Cc1ccncc1)C(=O)N[C@@H](CC(C)C)C(=O)N[C@@H](CC(C)C)C(=O)N[C@@H](C)C(=O)NCC(=O)NCC(=O)N1CCC[C@H]1C(=O)N[C@@H](CO)C(=O)N[C@@H](CO)C(=O)NCC(=O)N[C@@H](C)C(=O)N1CCC[C@H]1C(=O)N1CCC[C@H]1C(=O)N1CCC[C@H]1C(=O)N[C@@H](CO)C(N)=O)C(C)C [Example 23] (H-Y[Aib]EGT[αMeF]ISDYSIALDKK([AEEA-AEEA-γGlu-C18 diacid])HQ[Aib]DFVE[4Pal]LLAGGPSSGAPPPS-NH2)
- Ki (human GIPR): 0.0341 nM
- EC50 [1]: 206 nM
